Results: the NIST ThermoML archive (doi:10.1021/je100151b)

Legend:
[1] = mn = molality of the nth substance listed, in mol/kg; conditions: 101 kPa, Liquid, m1 = 0.25
[2] = refractive index (Na D-line) (dimensionless); mn = molality of the nth substance listed, in mol/kg; conditions: 101 kPa, Liquid, Standard Abbe refractometry, m1 = 0.25

[Cl][Fe][Cl] [ferrous chloride] + O
Conditions | mass density, [1] [kg/m3] | refractive index, [2]
288.15 K | 998.9 | 1.3375
293.15 K | 998.2 | 1.3468
298.15 K | 997 | 1.3559
303.15 K | 996 | 1.3661
308.15 K | 995 | 1.3768
313.15 K | 994.5 | 1.3874
318.15 K | 993.8 | 1.398
